Laboratory results as given in patent US20220096664A1, “STABILIZED FORMULATIONS CONTAINING IODINATED CONTRAST AGENTS AND CYCLODEXTRINS” (Verrow Pharmaceuticals, Inc., priority 2012, published 2022).
Where two headings read alike, the source gives them in different places. Values belong to the molecule of their own block, whether it stands above or below them.

What was measured:
[1] = Photostability: iodide formed after UV light irradiation; assay type: physicochemical; details: 473 mM iohexol, 10 mM TRIS, pH 7.4, UV 18 h
Method: (§1) Aqueous solutions comprising iodinated contrast agents were prepared and evaluated in a photolysis chamber as described in the ICH guidance document, Q1B Photostability Testing of New Drug Substances and Products, available from the US Food and Drug Administration, incorporated herein by reference. The solutions were placed in 1 cm×1 cm (3 mL) quartz cuvettes having 2 clear sides and 2 sides etched. Lids were placed on the cuvettes and sealed with a wrap of Parafilm® around the joint. The cuvettes were placed in a photolysis chamber, upright on a flat surface beneath and centered between two horizontal 24 inch fluorescent lamps, (GE, black light F20T12, 20 watt for ultraviolet, or Philips F20T12/CW, 20 watt for visible) placed 6 cm apart. The cuvettes were positioned such that their two clear sides were facing the two lamps.
(§2) Cuvettes were spaced ˜2 cm from each other, and no closer than 15 cm from the ends of the lamps. This positioning allowed reproducible light exposure to all cuvettes.
(§3) The lamps were switched on and the solutions irradiated for 18 to 24 hours for the ultraviolet (UV) lamps or 72 to 90 hours for the visible (VIS) light lamps. At the end of the selected irradiation time, the cuvettes were removed from the photolysis chamber and mixed by inversion 2-times. The caps were then removed and 40 microliter aliquots taken and diluted with 1 mL of an aqueous solution containing ˜0.9 mg/mL sodium thiosulfate. The thiosulfate solution converted any I2, IO3^−, and I3^− present in the solution tor such that total iodine species could be determined in one assay.
(§4) The diluted solutions were assayed by high pressure liquid chromatography (HPLC) using a 4.6×250 mm, C-18, 5 micron particle size, reversed phase column with detection at 280 nm for the contrast agent and 230 nm for the thiosulfate and the iodide ion (r). A mobile phase of 30:70 methanol:aqueous buffer (50 mM KH2PO4+7 mL/L 40% tetrabutyl ammonium hydroxide) at 0.75 mL/min was used for elution. Injection volume was 20 microliters. External standards were prepared containing each contrast agent, potassium iodide, and sodium thiosulfate solution and analyzed along with the irradiated samples. The results were reported as weight percentage iodide formed (mg iodide/mg contrast agent times 100).
(§5) The absorbance readings at 400 nm due to light exposure were plotted against time of exposure and the resulting correlation used to determine the UV and VIS light exposure. A change in absorbance reading of 0.45 was assumed equivalent to 200 watt hours/square meter for the UV light and a change of 0.51 was assumed equivalent to 1.2 million lux hours for the VIS light. The UV lamps provided 6.62 watts/square meter and the VIS lamps provided 7180 lux.
Aqueous solutions were prepared containing 50 mM contrast agent by diluting commercially available solutions with water. Tromethamine HCl buffer (TRIS), was added to solutions as necessary to increase the TRIS content to that of the commercial product before dilution.
SCD was added to the solutions at various mole ratios and the pH of the solutions adjusted to 7.4 with 0.1N hydrochloric acid or 0.1N sodium hydroxide. The solutions were irradiated with UV light for 18 hours (119 watt hours/m^2) then processed, analyzed and reported as in Example 2. The SCDs evaluated were sulfobutyl ether beta-cyclodextrin with an average degree of substitution of 7 (SBE-704CD), and two 2-hydroxypropyl beta-cyclodextrin derivatives having 6.3 (HP-6.3n/CD) and 4.3 (HP-4.3-βCD) average degrees of substitution.
Aqueous solutions were prepared containing 50 mM contrast agent by diluting commercially available solutions with distilled water. Tromethamine HCl buffer (TRIS), was added to some solutions to increase the buffer content.
The solutions were divided and SBE-7-CD added to one aliquot at a contrast agent:SCD mole ratio of 1:1. The pH of the solutions was adjusted to 5, 6, 7, 7.4 or 8 with 0.1N hydrochloric acid or sodium hydroxide. […]

[2] = Photostability: iodide formed after visible light irradiation; assay type: physicochemical; details: 10 mM TRIS; for Iodide formed: 50 mM agent, pH 7.4, VIS 72 h
Method: as §1, §2, §3, §4, §5
Aqueous solutions were prepared containing 473 mM iohexol (180 mg 1/mL), 10 mM tromethamine HCl buffer (TRIS), with and without various SCDs. The pH of the solutions was adjusted to 7.4 with 0.1N hydrochloric acid. Aliquots of the solutions were irradiated with ultraviolet (UV) light for 18 hours (119 watt hours/m^2) and other aliquots irradiated with visible (VIS) light for 90 hours (0.65 million lux hours). The solutions were then processed, analyzed and reported as in Example 2, with the exception that the iohexol peak was measured at 300 nm for both samples and standards. Results of the study are presented in the table below along with the SCD used. The SCDs included derivatives prepared from alpha, beta, and gamma CD to evaluate the effect of CD cavity size. Various substituents, including one derivative containing more than one type of substituent, and degrees of substitution (DS) were also evaluated.
Aqueous solutions were prepared containing 50 mM iodinated contrast agent, 10 mM tromethamine HCl buffer (TRIS), with and without sulfobutylether beta-cyclodextrin with an average degree of substitution-7 (SBE7-β-CD), or 2-hydroxypropyl beta-cyclodextrin with an average degree of substitution of ˜6.3 (HP6.3-β-CD) or ˜4.3 (HP4.3-β-CD). […]

[3] = assay type: physicochemical; details: for Iodide formed: 50 mM agent, 10 mM TRIS
Method: as §3, §4
(§6) Aqueous solutions were prepared containing 50 mM iodinated contrast agent, 10 mM tromethamine HCl buffer (TRIS), with and without sulfobutylether beta-cyclodextrin with an average degree of substitution-7 (SBE7-β-CD), or 2-hydroxypropyl beta-cyclodextrin with an average degree of substitution of ˜6.3 (HP6.3-β-CD) or ˜4.3 (HP4.3-β-CD). The iohexol solution was prepared by dissolving solid iohexol powder while the other solutions were prepared by diluting commercial formulated products and adding sufficient TRIS buffer to reach 10 mM. The pH of the solutions was adjusted to 7.4 with 0.1N hydrochloric acid.
(§7) Aliquots of the solutions were irradiated with visible light for 72 hours (0.52 million lux hours). Other aliquots were autoclaved for 20 minutes at 121° C., cooled to room temperature and then irradiated with ultraviolet light for 18 hours (119 watt hours/m2). The solutions were then processed, analyzed and reported as in Example 2, except that the chromatographic peaks of the contrast agents were evaluated at 300 nm for both samples and standards.
Aqueous solutions were prepared containing 50 mM iohexol, 0, 2.5, 5, 7.5, or 10 mM tromethamine HCl (TRIS) buffer, with and without 2.5 mM sulfobutylether beta-cyclodextrin with an average degree of substitution-7 (SBE7-β-CD). The pH of the solutions was adjusted to 7.4 with 0.1N hydrochloric acid and the solutions were transferred to glass vials. The vials were stoppered, crimp-capped and autoclaved for 20 minutes at 121° C. The pH of the autoclaved solutions was measured after the solutions were at room temperature.
Aliquots of the autoclaved solutions were irradiated with visible light for 72 hours (0.52 million lux hours) and other aliquots irradiated with ultraviolet light for 18 hours (119 watt hours/m2). The solutions were then processed, analyzed and reported as in Example 2, except that the chromatographic peak of the iohexol was evaluated at 300 nm for both samples and standards.
Aqueous formulations were prepared containing iodinated contrast agents at concentrations used commercially in medical procedures. Sulfobutylether-cyclodextrin, sodium salt, average degree of substitution ˜7 (SBE7CD) was added at varying agent:CD mole ratios. The formulations were placed in glass vials, sealed with rubber stoppers and aluminum crimps, and autoclaved at 121° C. for 20 minutes. […]

[4] = assay type: physicochemical
Method: as §3, §4, §6
as §7, with “standards. […]” for “standards.”
Aqueous formulations were prepared containing iodinated contrast agents at concentrations used commercially in medical procedures. Sulfobutylether-cyclodextrin, sodium salt, average degree of substitution ˜7 (SBE7CD) was added at varying agent:CD mole ratios. The formulations were placed in glass vials, sealed with rubber stoppers and aluminum crimps, and autoclaved at 121° C. for 20 minutes. Aliquots of the autoclaved solutions were exposed to UV light for 24 hours (159 watt hours/m^2 or VIS light for 72 hours (0.52 million lux hours) as in Example 2. The solutions were then processed, analyzed and reported as in Example 2, with the following two exceptions; 1) the chromatographic peaks of the contrast agents were evaluated at 300 nm for both samples and standards, and 2) only 20 microliter sample aliquots were taken and diluted for HPLC analysis due to the higher concentrations used in this study. Results of the study are presented in the table below along with the solution compositions.

[5] = contrast media solutions; cited from earlier work
[6] = pH 7.4, autoclaved then UV 18 h, agent:SBE7-β-CD 1:0.1
[7] = pH 7.4, autoclaved then UV 18 h, no SCD (1:0)

Molecule: sulfobutylether 3.5-ethylether 3.5-beta-cyclodextrin [SBE-EE-βCD]
- I- formed, UV ([1]; iohexol:SCD 1:0.05): 0.0825 wt %
- % Change in iodide degradants (UV) ([1]; iohexol:SCD 1:0.05 vs control): −22.9% (UV)
- I- formed, VIS ([2]; 473 mM iohexol, pH 7.4, VIS 90 h, iohexol:SCD 1:0.05): 0.0584 wt %
- % Change in iodide degradants (Vis) ([2]; 473 mM iohexol, pH 7.4, VIS 90 h, iohexol:SCD 1:0.05 vs control): −5.3% (Vis)

- Iodide formed [3, 6]: 0.332 wt %
- Iodide formed [3, 7]: 0.392 wt %
- Iodide Formed, UV ([3]; Ioxaglate 320 mg I/mL, pH 7.0, agent:SBE7CD 1:0.05, autoclaved then UV 24 h): 0.0845 wt %
- Iodide Formed, VIS ([3]; Ioxaglate 320 mg I/mL, pH 7.0, agent:SBE7CD 1:0.05, autoclaved then VIS 72 h): 0.0175 wt %
- Iodide Formed, UV ([3]; Ioxaglate 320 mg I/mL, pH 7.0, no SCD (1:0), autoclaved then UV 24 h): 0.114 wt %
- Iodide Formed, VIS ([3]; Ioxaglate 320 mg I/mL, pH 7.0, no SCD (1:0), autoclaved then VIS 72 h): 0.0197 wt %
- Iodide Formed, Autoclaved ([4]; Ioxaglate 320 mg I/mL (393 mg ioxaglate meglumine and 196 mg ioxaglate sodium), pH 7.0, no SCD (1:0)): 0.00457 wt %
- Iodide Formed, Autoclaved ([4]; Ioxaglate 320 mg I/mL, pH 7.0, agent:SBE7CD 1:0.05): 0.00329 wt %
- Iodide formed ([2]; agent:SBE7-β-CD 1:0.1): 0.211 wt %
- Iodide formed ([2]; no SCD (1:0)): 0.231 wt %
Molecule: CNC(=O)c1c(I)c(C(=O)NCC(=O)Nc2c(I)c(C(=O)O)c(I)c(C(=O)NCCO)c2I)c(I)c(N(C)C(C)=O)c1I [Ioxaglate, ioxaglate]

- Iodide formed [3, 6]: 0.470 wt %
- Iodide formed [3, 7]: 0.540 wt %
- Iodide formed ([3]; pH 7.4, autoclaved then visible light, agent:SBE7-β-CD 1:0.1): 0.344 wt %
- Iodide formed ([3]; pH 7.4, autoclaved then visible light, no SCD (1:0)): 0.348 wt %
- Iodide Formed, UV ([3]; Iopamidol 200 mg I/mL, pH 7, agent:SBE7CD 1:0.05, autoclaved then UV 24 h): 0.145 wt %
- Iodide Formed, VIS ([3]; Iopamidol 200 mg I/mL, pH 7, agent:SBE7CD 1:0.05, autoclaved then VIS 72 h): 0.0574 wt %
- Iodide Formed, UV ([3]; Iopamidol 200 mg I/mL, pH 7, no SCD (1:0), autoclaved then UV 24 h): 0.150 wt %
- Iodide Formed, VIS ([3]; Iopamidol 200 mg I/mL, pH 7, no SCD (1:0), autoclaved then VIS 72 h): 0.0570 wt %
- Iodide Formed, Autoclaved ([4]; Iopamidol 200 mg I/mL, pH 7, agent:SBE7CD 1:0.05): 0.00338 wt %
- Iodide Formed, Autoclaved ([4]; Iopamidol 200 mg I/mL, pH 7, no SCD (1:0)): 0.00347 wt %
- Iodide formed ([2]; agent:SBE7-β-CD 1:0.1): 0.355 wt %
- Iodide formed ([2]; no SCD (1:0)): 0.356 wt %
Molecule: C[C@H](O)C(=O)Nc1c(I)c(C(=O)NC(CO)CO)c(I)c(C(=O)NC(CO)CO)c1I [Iopamidol, iopamidol]
- stabilization against degradation from autoclaving+visible light irradiation [3]: stabilized all formulations except iopamidol

Molecule: CNC(=O)c1c(I)c(NC(C)=O)c(I)c(C(=O)O)c1I [iothalamate sodium]
- degradation in solution after exposure to ultraviolet light [5]: formation of iodine and iodide ions
